The values below come from paper PMC10218234, “Design, Synthesis and Antitumor Activity of 1H-indazole-3-amine Derivatives” (International Journal of Molecular Sciences, 2023).

Where two headings read alike, the source gives them in different places.

In data set [1] the test system is K562 cells. Put plainly: MTT anti-proliferative assay, K562. It counts as cell-based. To be noted: Homo sapiens. The method, then:
(§1) The antiproliferative activity of the target indazole derivatives was evaluated against a panel of human cancer cell lines (human chronic myeloid leukemia cell lines K562; human lung cancer cell lines A549; human prostate cancer cell lines PC-3; human hepatoma cell lines HepG-2) in vitro, and human embryonic kidney cell lines HEK-293 were used to evaluate the cytotoxicity of a normal cell with high activity derivatives by MTT assay. Moreover, 5-fluorouracil (5-Fu), a broad-spectrum drug antitumor drug with therapeutic effects on various cancers, was used as a positive control.
(§2) Lung (A549), chronic myeloid leukemia (K562), prostate (PC3), and live (Hep-G2) cells were purchased from the Cell Bank of the Chinese Academy of Sciences (Kunming, China). A549, K562, and PC-3 cells were cultured in RPMI-1640 medium and the liver cells Hep-G2 were cultured in MEM medium. All mediums were supplemented with 10% FBS, 100 μg/mL penicillin and 100 μg/mL streptomycin. All cells were cultivated in a 5% CO2 incubator at 37 °C.
(§3) To investigate the anticancer activity of indazole derivatives, A549, K562, PC3, and Hep-G2 cells were treated with targets compounds respectively for 48 h in a range of concentrations (from 0.625 to 10 μM) and subjected to a proliferation assay using the MTT assay. Exponentially growing cells were seeded at a density of 5000 cells per well in 96-well plates containing 100 μL of fresh growth medium. After allowing the cells to attach for 24 h, target compounds were added. After incubation for 48 h, viable cells were stained with MTT (0.5 mg/mL) for 4 h, and the produced formazan crystals were dissolved with 150 µL of dimethyl sulfoxide. Absorbance was measured at 490 nm using an automated microplate reader (Tecan, Infinite M200 Pro, Männedorf, Switzerland). The relative cell viability was calculated according to the following equation: Cell viability%=experimental OD value/control OD value×100%Cell inhibition%=control OD value−experimental OD value/control OD value×100%
(§4) Cell inhibition%=control OD value−experimental OD value/control OD value×100%
In general terms: Tetrazolium assays rely on reduction of a dye to a coloured formazan, in cell work by metabolically active cells.

The next data set relates to A549 cells. Put plainly: MTT anti-proliferative assay, A549. The data set is classed as cell-based. Particulars: Homo sapiens, read-out: IC50 ± SD, A549. The method, then:
as §1, §2, §3, §4

A further data set concerns PC-3 cells. Put plainly: MTT anti-proliferative assay, PC-3. It counts as cell-based. Particulars: Homo sapiens, PC-3, 48 h. How it is done:
as §1, §2
as §3, with “Exponentially” for “To investigate the anticancer activity of indazole derivatives, A549, K562, PC3, and Hep-G2 cells were treated with targets compounds respectively for 48 h in a range of concentrations (from 0.625 to 10 μM) and subjected to a proliferation assay using the MTT assay. Exponentially”
as §4

In a further data set the test system is Hep-G2 cells. Put plainly: MTT anti-proliferative assay, Hep-G2. To be noted: Homo sapiens. It counts as cell-based. How it is done: as §1, §2, §3, §4
The nature of data set [2]: MTT cytotoxicity to normal cells, HEK-293. It counts as cell-based, human. Particulars: human, HEK-293 cells (normal human embryonic kidney cells); normal cell HEK-293; MTT; read-out: IC50 ± SD, HEK-293. How it is done: as §1, §3, §4
The next data set relates to HEK-293 cells. Put plainly: MTT cytotoxicity to normal cells, HEK-293. Particulars: for Selectivity index (SI) for Hep-G2 cells: IC50 in HEK-293 divided by IC50 in Hep-G2. It counts as cell-based, human. How it is done:
as §1, §3, §4

For data set [3], the system named is K562 cells. Put plainly: Cell cycle analysis (PI staining, flow cytometry). It counts as cell-based, human. Particulars: K562, positive control, 24 h. The method, then: To further explore the antitumor properties of 6o, the effect of 6o on cell cycle distribution was evaluated. PI staining was used to perform cell cycle analysis.
To analyze the cell cycle, a PI apoptosis detection kit (Solarbio, Wuhan, China) was utilized. After K562 cells were seeded in 6-well plates for 24 h, compound 6o (10, 12 and 14 μM) or positive control was added to the plates for another 24 h. Then, cells were washed three times with PBS, and fixed with 70% ethanol at 4°C for overnight. After fixed, cells were again washed with PBS and incubated at 37 °C with 100 μL RNase A for 30 min. After this, cells were incubated with 400 μL PI for 30 min at 4 °C. After staining, cells were subjected to Flow Cytometry using Cell Quest software (BD, SN: E34297502014) and the PI fluorescence was recorded in the FL2 channel. Data were analyzed using FlowJo V10.

[4] abbreviates: Table 1, 48 h, read-out: IC50 ± SD, K562.
Setting [5] is: Table 1, read-out: IC50 ± SD, PC-3.
[6] abbreviates: Table 2, read-out: IC50 ± SD, PC-3.
[7] abbreviates: HepG2, 48 h, Table 1, 48 h, read-out: IC50 ± SD, Hep-G2.
Setting [8] is: HepG2, 48 h, Table 2, 48 h, read-out: IC50 ± SD, Hep-G2.
Setting [9] is: HepG2, Table 3, read-out: IC50 ± SD, Hep-G2.
Where [10] appears, read: Table 2, 48 h, read-out: IC50 ± SD, K562.

Take `O=c1[nH]cc(F)c(=O)[nH]1` [5-Fu, 5-fluorouracil, reference compound]: the IC50 – broadly, the midpoint of a concentration-inhibition curve – was found to be 8.53 ± 2.27 µM with K562 cells [1] (setting [4]); 8.53 ± 2.27 µM in the data set with K562 cells [1] (Table 3, read-out: IC50 ± SD, K562); 8.37 ± 0.79 µM in the data set with A549 cells (Table 1, 48 h); 9.17 ± 3.93 µM in the data set with PC-3 cells (setting [5]); 3.47 ± 0.21 µM with PC-3 cells (setting [6]); 9.78 ± 1.58 µM with Hep-G2 cells (setting [7]). Moreover, the concentration for half-maximal inhibition (IC50) in the data set on Hep-G2 cells (setting [8]) was 2.25 ± 0.46 µM; in the data set on Hep-G2 cells (setting [9]), 9.78 ± 1.58 µM. Moreover, the IC50 at 48 h in data set [2] is 1.16 ± 0.11 µM. Further, in the data set on HEK-293 cells, the “Selectivity index (SI) for Hep-G2 cells” value is given as 0.12. Moreover, in the data set on HEK-293 cells (IC50 in HEK-293 divided by IC50 in K562), the “Selectivity index (SI) for K562 cells” value is reported as 0.14. For the same compound, the “increase of the proportion of the G0/G1 phase after drug treatment” value in the data set on K562 cells [3] is on record as 10%.
On to `O=C(CN1CCN(c2ccccc2)CC1)Nc1n[nH]c2ccc(-c3cc(F)cc(F)c3)cc12` [6k], for which the melting point (in general, the temperature, or range, at which the solid turns liquid) was 180 to 182 °C. Further, in the data set with K562 cells [1] (setting [10]), the concentration for half-maximal inhibition (IC50) was found to be 11.2 ± 0.56 µM. Further, the IC50 in the data set with A549 cells (Table 2, 48 h) turned out to be 7.83 ± 1.06 µM. Further, the IC50 in the data set with PC-3 cells (setting [6]) stood at 4.25 ± 0.13 µM. The concentration for half-maximal inhibition (IC50) in the data set on Hep-G2 cells (setting [8]) turned out to be 1.61 ± 0.28 µM.
Taken in the same sequence, the figures for `O=C(CN1CCN(c2ccncc2)CC1)Nc1n[nH]c2ccc(-c3cc(F)cc(F)c3)cc12` [6l] were 200 to 201 °C, 14 ± 0.49 µM, 12.9 ± 0.21 µM, 2.89 ± 0.16 µM and 7.65 ± 3.34 µM.
`COc1ccc(N2CCN(CC(=O)Nc3n[nH]c4ccc(-c5ccc(Cl)c(F)c5)cc34)CC2)cc1` [6n] came in with a melting point of 174 to 176 °C. Also, in the data set on K562 cells [1] (setting [10]), the IC50 came to 13.3 ± 1.4 µM. In addition, in the data set on A549 cells (Table 2, 48 h), the IC50 came out at 18.7 ± 3.1 µM. In the data set with PC-3 cells (setting [6]), the IC50 came out at 34.8 ± 4.37 µM. Moreover, the IC50 in the data set with Hep-G2 cells (setting [8]) was determined as 4.76 ± 0.63 µM.
Taken in the same sequence, the figures for `O=C(CN1CCN(c2ccccc2Cl)CC1)Nc1n[nH]c2ccc(-c3ccc(Cl)c(F)c3)cc12` [6p] were 163 to 165 °C, greater than 50 µM, 13.6 ± 0.53 µM, 32.1 ± 2.26 µM and 2.38 ± 0.37 µM.
On the same counts, the results for `O=C(CN1CCN(c2ccc(F)cc2F)CC1)Nc1n[nH]c2ccc(-c3ccc(Cl)c(Cl)c3)cc12` [6q] are 160 to 162 °C, 5.61 ± 1.14 µM, 12.8 ± 2.66 µM, 10.7 ± 1.66 µM and 2.7 ± 0.47 µM.
Consider `O=C(CN1CCN(c2ccc(Cl)cc2)CC1)Nc1n[nH]c2ccc(-c3ccc(Cl)c(Cl)c3)cc12` [6s], for which the melting point was in the range of 179 to 182 °C. In addition, the IC50 in the data set with K562 cells [1] (setting [10]) was determined as 10.8 ± 0.68 µM. In addition, in the data set on A549 cells (Table 2, 48 h), the IC50 was 20.4 ± 8.08 µM. In the data set with PC-3 cells (setting [6]), the IC50 was determined as 20.3 ± 4.71 µM. Further, the IC50 in the data set on Hep-G2 cells (setting [8]) was determined as 2.92 ± 1.41 µM.
On the same counts, the results for `N#Cc1ccc(N2CCN(CC(=O)Nc3n[nH]c4ccc(-c5ccc(Cl)c(Cl)c5)cc34)CC2)cc1` [6t] are 194 to 197 °C, 11.1 ± 0.69 µM, 40.9 ± 6.54 µM, 19 ± 0.58 µM and 1.98 ± 0.35 µM.
Taken in the same sequence, the figures for `O=C(CN1CCN(c2ccncc2)CC1)Nc1n[nH]c2ccc(-c3ccc(Cl)c(Cl)c3)cc12` [6u] were 195 to 197 °C, greater than 50 µM, 17.6 ± 4.11 µM, 27.7 ± 16.9 µM and 20 ± 3.04 µM.
`O=C(CSc1ccc(Br)cc1)Nc1n[nH]c2ccc(-c3cc(F)cc(F)c3)cc12` [compound 5k] registered a melting point of 204 to 205 °C. Moreover, the IC50 with K562 cells [1] (setting [4]) amounted to 8.86 ± 0.66 µM. Further, the IC50 in the data set on A549 cells (Table 1, 48 h) turned out to be 7.78 ± 0.18 µM. Further, the IC50 with PC-3 cells (setting [5]) stood at 12.6 ± 2.17 µM. Further, the IC50 in the data set with Hep-G2 cells (setting [7]) stood at 3.32 ± 0.43 µM. In addition, the IC50 in the data set with Hep-G2 cells (setting [9]) is 3.32 ± 0.43 µM. In data set [2], the IC50 at 48 h was determined as 12.2 ± 2.85 µM. For the same compound, the “Selectivity index (SI) for Hep-G2 cells” value in the data set with HEK-293 cells is on record as 3.67.
